Tests used:
P. aeruginosa [1] = experiment: Colony colour on gelled medium of Example 3; type: cell-based, Pseudomonas aeruginosa; set-up: key: —: Absence of coloration; Brown = Colony colour; settings: 37° C.
Description: (§1) L-Pro-BIA, pyroglutamyl-BIA (Pyr-BIA) or Ala-Phe-Pro-BIA is added to this medium. These various media, which are distributed into Petri dishes, are inoculated with various microorganisms: E. coli, K. pneumoniae, C. freundii, p. aeruginosa, S. agalactiae, E. faecium, S. pyogenes, S. epidermidis, C. albicans and C. tropicalis. The dishes are incubated at 37° C. for 48 hours, and the colonies formed are examined visually after incubation for 24 and 48 hours. The colour was noted.

E. coli [2] = experiment: Colony colour on gelled medium of Example 3; type: cell-based, Escherichia coli; set-up: key: —: Absence of coloration; Brown = Colony colour; settings: 37° C.
Description: as §1

S. agalactiae [3] = experiment: Colony colour on gelled medium of Example 3; type: cell-based, Streptococcus agalactiae; set-up: key: —: Absence of coloration; Brown = Colony colour; settings: 37° C.
Description: as §1

C. freundii [4] = experiment: Colony colour on gelled medium of Example 3; type: cell-based, Citrobacter freundii; set-up: key: —: Absence of coloration; Brown = Colony colour; settings: 37° C.
Description: as §1

S. pyogenes [5] = experiment: Colony colour on gelled medium of Example 3; type: cell-based, Streptococcus pyogenes; set-up: key: —: Absence of coloration; Brown = Colony colour; settings: 37° C.
Description: as §1

E. faecium [6] = experiment: Colony colour on gelled medium of Example 3; type: cell-based, Enterococcus faecium; set-up: key: —: Absence of coloration; Brown = Colony colour; settings: 37° C.
Description: as §1

K. pneumoniae [7] = experiment: Colony colour on gelled medium of Example 3; type: cell-based, Klebsiella Pneumoniae; set-up: key: —: Absence of coloration; Brown = Colony colour; settings: 37° C.
Description: as §1

S. epidermidis = experiment: Colony colour on gelled medium of Example 3; type: cell-based, Staphylococcus epidermidis; set-up: key: —: Absence of coloration; Brown = Colony colour; settings: 37° C.
Description: as §1

C. freundii [8] = experiment: Coloration or fluorescence in phosphate buffer, microtitration plates (Example 2); type: cell-based, Citrobacter freundii; settings: 0.1 M phosphate buffer pH 7.3, 24 to 48 hours
K. pneumoniae [9] = experiment: as above; type: cell-based, Klebsiella Pneumoniae; settings: 0.1 M phosphate buffer pH 7.3, 24 to 48 hours
E. faecium [10] = experiment: as above; type: cell-based, Enterococcus faecium; settings: 0.1 M phosphate buffer pH 7.3, 24 to 48 hours
P. aeruginosa [11] = experiment: as above; type: cell-based, Pseudomonas aeruginosa; settings: 0.1 M phosphate buffer pH 7.3, substrate 400 mg/L, 37° C., 24 to 48 hours
Description: L-Pro-BIA or L-Pro-AMC is added, at the concentration of 400 mg/L, to a 0.1 M phosphate buffer, pH 7.3, at 25° C. The medium obtained is distributed into the wells of microtitration plates which are inoculated with suspensions of P. aeruginosa or of C. albicans. The plates are incubated for 24 hours at 37° C. The wells are examined visually in ambient light and under a UV lamp, after incubation for 24 to 48 hours.

S. agalactiae [12] = experiment: as above; type: cell-based, Streptococcus agalactiae; settings: 0.1 M phosphate buffer pH 7.3, 24 to 48 hours
[13] = test system: genera Escherichia, Klebsiella, Citrobacter, Pseudomonas, Enterococcus, Staphylococcus and Streptococcus; experiment: Preliminary tests in the medium described in Example 1; type: cell-based; settings: for leucine-aminopeptidase or proline-aminopeptidase activity demonstrated: substrate added to the medium of Example 1
Description: In the course of the studies which lead to the present invention, an investigation was, carried out as to whether it was possible to use this enzymatic substrate for detecting microorganisms cultured, in particular, on gelled media. During preliminary tests, L-Leu-BIA or L-Pro-BIA was added to a medium currently used to search for osidases, which is described in Example 1 below.
Similarly, in this medium, with osidase substrates (5-bromo-4-chloro-3-indolyl-β-D-galactoside and 6-chloro-3-indolyl-β-D-glucuronide), the β-galactos-idase and β-glucuronidase activities of the microorganisms can be detected.

S. pyogenes [14] = experiment: Coloration or fluorescence in phosphate buffer, microtitration plates (Example 2); type: cell-based, Streptococcus pyogenes; settings: 0.1 M phosphate buffer pH 7.3, 24 to 48 hours
E. coli [15] = experiment: as above; type: cell-based, Escherichia coli; settings: 0.1 M phosphate buffer pH 7.3, 24 to 48 hours
[16] = test system: Staphylococcus epidermidis; experiment: Colony colour or fluorescence on gelled medium of Example 1; type: cell-based; settings: medium of Example 1, substrate 200 mg/L, 24 or 48 hours
Streptococcus pyogenes = experiment: as above; type: cell-based; settings: medium of Example 1, substrate 200 mg/L, 24 or 48 hours
Citrobacter freundii = experiment: as above; type: cell-based; settings: medium of Example 1, substrate 200 mg/L, 24 or 48 hours
Streptococcus agalactiae = experiment: as above; type: cell-based; settings: medium of Example 1, substrate 200 mg/L, 24 or 48 hours
Enterococcus faecium = experiment: as above; type: cell-based; settings: medium of Example 1, substrate 200 mg/L, 24 or 48 hours
Klebsiella Pneumoniae = experiment: as above; type: cell-based; settings: medium of Example 1, substrate 200 mg/L, 24 or 48 hours
Pseudomonas aeruginosa = experiment: as above; type: cell-based; settings: medium of Example 1, substrate 200 mg/l, 37° C., 24 or 48 hours, ambient light and UV 365 nm
Description: L-Pro-BIA, or 7-L-prolylamino-4-methylcoumarin (L-Pro-AMC) is added to this medium at a concentration of 200 mg/l. The various media obtained, which are distributed in Petri dishes, are inoculated with microorganisms. The dishes were incubated at 37° C. for 48 hours. The colonies formed were examined visually in ambient light and under a UV lamp (wavelength=365 nm) after incubation for 24 and 48 hours. The colour or the presence of fluorescence was noted. The microorganisms studied were: Pseudomonas aeruginosa and Candida albicans.

Escherichia coli = experiment: as above; type: cell-based; settings: medium of Example 1, substrate 200 mg/L, 24 or 48 hours

Row | SMILES | Colony colour (P. aeruginosa [1]; 24 H) | Colony colour (P. aeruginosa [1]; 48 H) | Colony colour (E. coli [2]; 24 H) | Colony colour (E. coli [2]; 48 H) | Colony colour (S. agalactiae [3]; 24 H) | Colony colour (S. agalactiae [3]; 48 H) | Colony colour (C. freundii [4]; 24 H) | Colony colour (C. freundii [4]; 48 H) | Colony colour (S. pyogenes [5]; 24 H) | Colony colour (S. pyogenes [5]; 48 H) | Colony colour (E. faecium [6]; 24 H) | Colony colour (E. faecium [6]; 48 H) | Colony colour (K. pneumoniae [7]; 24 H) | Colony colour (K. pneumoniae [7]; 48 H) | peptidase activity revealed by coloration or fluorescence of the wells (C. freundii [8]) | peptidase activity revealed by coloration or fluorescence of the wells (K. pneumoniae [9]) | peptidase activity revealed by coloration or fluorescence of the wells (E. faecium [10]) | peptidase activity revealed by coloration or fluorescence of the wells (P. aeruginosa [11]) | peptidase activity revealed by coloration or fluorescence of the wells (S. agalactiae [12]) | leucine-aminopeptidase or proline-aminopeptidase activity demonstrated [13] | other results
1 | CC(N)C(=O)NC(Cc1ccccc1)C(=O)N1CCCC1C(=O)Nc1c[nH]c2ccc(Br)cc12 (stereo not drawn) [Ala-Phe-Pro-BIA] | Brown | Brown | Brown^2 | Brown | Brown | Brown | Brown | Brown | Brown | Brown | — | — | Brown | Brown |  |  |  |  |  |  | 
2 | O=C1CCC(C(=O)Nc2c[nH]c3ccc(Br)cc23)N1 (stereo not shown) [Pyr-BIA, pyroglutamyl-BIA] | Brown | Brown | — | — | — | — | — | Brown | Brown | Brown | Brown | Brown | — | Brown |  |  |  |  |  |  | Colony colour (S. epidermidis; 24 H): —; Colony colour (S. epidermidis; 48 H): —
3 | Cc1cc(=O)oc2cc(NC(=O)[C@@H](N)CC(C)C)ccc12 [L-Leu-AMC, 7-L-leucylamino-4-methylcoumarin] |  |  |  |  |  |  |  |  |  |  |  |  |  |  | detected, by emission of fluorescence | detected, by emission of fluorescence | detected, by emission of fluorescence | detected, by emission of fluorescence | detected, by emission of fluorescence | a fluorescence | peptidase activity revealed by coloration or fluorescence of the wells (S. pyogenes [14]): detected, by emission of fluorescence; peptidase activity revealed by coloration or fluorescence of the wells (E. coli [15]): detected, by emission of fluorescence
4 | CC(C)C[C@H](N)C(=O)Nc1c[nH]c2ccc(Br)cc12 [L-Leu-BIA, 3-L-leucylamino-5-bromoindole] |  |  |  |  |  |  |  |  |  |  |  |  |  |  | did not make it possible to detect | did not make it possible to detect | did not make it possible to detect | did not make it possible to detect | did not make it possible to detect | not possible to demonstrate | peptidase activity revealed by colour or fluorescence of the colonies [16]: no coloration; peptidase activity revealed by colour or fluorescence of the colonies (Streptococcus pyogenes): no coloration; peptidase activity revealed by colour or fluorescence of the colonies (Citrobacter freundii): no coloration; revelation of a peptidase activity ([13]; medium of Example 1 with addition of the reagents proposed by Lojda and Havrankova (tetrazolium salt and phenazine methosulphate)): without allowing the revelation of a peptidase activity; peptidase activity revealed by colour or fluorescence of the colonies (Streptococcus agalactiae): no coloration; peptidase activity revealed by colour or fluorescence of the colonies (Enterococcus faecium): no coloration; peptidase activity revealed by colour or fluorescence of the colonies (Klebsiella Pneumoniae): no coloration; peptidase activity revealed by colour or fluorescence of the colonies (Pseudomonas aeruginosa): no coloration; peptidase activity revealed by coloration or fluorescence of the wells (S. pyogenes [14]): did not make it possible to detect; peptidase activity revealed by colour or fluorescence of the colonies (Escherichia coli): no coloration; peptidase activity revealed by coloration or fluorescence of the wells (E. coli [15]): did not make it possible to detect

Reference: patent US6649365B1, “Indolamine derivatives for detecting peptidase activity in culture media” (Bio Merieux, priority 1998, dated 2003)
